Where a SMILES comes first, the peptide text is derived from it. The star is where a group is joined. Cbz = O=C(OCc1ccccc1)*
Experiments:
[1] = system: CHO-T cells; experiment: Phosphorylation (mobility shift) of truncated IRS-1 PH/PTB constructs in CHO-T cells; assay type: cell-based, Chinese Hamster; details: 25 nM calyculin A 60 min
Procedure: (§1) FIGS. 7a-c show In vivo phosphorylation of PH/PTB-L in response to insulin. CHO-T cells were transiently transfected with pcDNA3-Myc-PH/PTB (1-1290 nt) or with an insert-free plasmid (control). Twenty-four hours post-transfection, the cells were deprived of serum for 16 h and were then treated with insulin for the indicated time periods. Cell extracts (100 μg) were resolved on 10% SDS-PAGE and immunoblotted with anti-pY or anti-Myc antibodies (FIG. 7a). In parallel, samples (100 μg, 40 μl) were incubated with 3 units (U) of calf intestine phosphatase (CIP) at 37° C. for 1 h. The samples were resolved on 10% SDS-PAGE and immunoblotted with anti-Myc antibodies (FIG. 7b). The results are of a representative of two experiments. FIG. 7c—CHO^PH/PTB-L cells were starved in serum-free F12 medium for 16 h. The cells were treated for 30 min with the indicated inhibitors prior to being treated with 100 nM insulin for 30 min. Cell extracts were prepared, samples were resolved on 10% SDS-PAGE and were immunoblotted with anti-Myc antibodies. Results are of a representative of three experiments.
FIGS. 8a-b show the effects of insulin on Serine phosphorylation of Myc-PH/PTB-L^7A CHO-T cells were transiently transfected with constructs encoding Myc-PH/PTB-L (1-1290 nt), either wild type (WT) or the 7A mutant (FIG. 8a). Alternatively, the cells were transfected or with the constructs encoding Myc-PH/PTB-L (1-1290 nt; 1-430 aa) or Myc-PH/PTB-S (1-1095 nt; 1-365 aa, FIG. 8b). Following 24 hours in culture, the cells were incubated in serum-free F12 medium for 16 ch prior to being treated with insulin for the indicated times. Cell extracts were resolved on 10% SDS-PAGE and immunoblotted with anti-Myc antibodies. Results are of a representative of three experiments.
FIGS. 9a-b show the effects of insulin and calyculin A on Ser phosphorylation of PH/PTB-L mutants. FIG. 9a—CHO-T cells were transiently transfected with constructs expressing either Myc-PH/PTB^WT or the following PH/PTB mutants: S336A, S407A, S408A, S407/8A and S3A (S336/407/408A). Following 24 hours the cells were deprived of serum for 16 h, and were treated with insulin for the indicated times. Cell extracts were resolved on 10% SDS-PAGE and immunoblotted with anti-Myc antibodies. The results are of a representative of two-three experiments. FIG. 9b—CHO-T cells were transiently transfected with pcDNA3-myc-PH/PTB^WT or pcDNA3-myc-PH/PTB^S408A. Following 24 hours the cells were starved for 16 h and were then treated either with 100 nM insulin for 30 min or with 25 nM calyculin A for 60 min. Cell extracts were resolved on 10% SDS-PAGE and were immunoblotted with anti-Myc antibodies. Results are of a representative of two experiments.
Plasmids construction—i. Myc-tagged-IRS-1 The cDNA, encoding for the mouse IRS-1 in the pCNA-3 expression plasmid (35) was digested with Hind III and BspE-1. This deleted a 9 by fragment from the 5′-IRS-1 cDNA that was replaced by a double stranded synthetic oligonucleotide encoding the Myc tag and the missing amino-acids of IRS-1 (bold) […] (SEQ ID NO. 9). ii. Myc-tagged truncated IRS-1 (aa 1-430, PH/PTB-L) Myc-tagged mouse IRS-1 cDNA (N-terminus, 1-1290 nt), encoding for the first 430 aa of IRS-1, was PCR-amplified with the following primers. 5′-CAGGATCCGCATATGGAACAAAAGCTC-3′ (sense) (SEQ ID NO. 10); 5′-GAGAATTCATCAGGGACTAGAACCATA-3′ (anti-sense) (SEQ ID NO. 11), using as a template the pcDNA3-Myc-IRS-1 plasmid. The PCR product was ligated into a pGEM-T. The insert was excised from pGEM-T with BamH I and EcoR I (italic), and then was ligated into pcDNA3 at the same restriction sites to generate pcDNA3-Myc-IRS-1^PH/PTB-L. iii. Myc-tagged truncated IRS-1 (aa 1-365, PH/PTB-S) Myc-tagged mouse IRS-1 cDNA (N-terminus, 1-1095 nt), encoding for the first 365 aa of IRS-1, was PCR-amplified with the following primers: 5′ […]-3′ (sense) (SEQ ID NO. 12); 5′ […] 3′ (anti sense) (SEQ ID NO. 13) using as a template the pcDNA3-Myc-IRS-1. […]

[2] = system: S408 of IRS-1; experiment: In vivo phosphorylation of S408 of IRS-1 in cultured Fao cells; assay type: cell-based, rat
Procedure: Following 48 hours, the cells were starved for 16 hours. The medium was removed and the cells were incubated with or without 100 nM insulin for the indicated times (FIG. 10a). Alternatively, the cells were incubated with insulin, SMase or calyculin A as indicated (FIG. 10b). Cytosolic extracts (100 μg) were resolved on 7.5% SDS-PAGE and immunoblotted with anti-phospho-Ser 408 antibody or anti-PY antibodies as indicated.
Infection of Fao cells with adenovirus—Fao cells were grown in RPMI medium containing 10% FCS. At 70% confluence cells were infected with adenoviruses harboring the gene of interest at a titer of 7 10^7 PFU/ml. After incubation for 2 h hours at 37° C., the virus-containing medium was diluted 1:5 in fresh RPMI medium. After 24 h the medium was replaced with a fresh RPMI medium containing 10% FCS. 48 h post-infection the Fao cells were starved in serum-free RPMI for 16 h and were then subjected to the indicated treatments as described below.
Treatment of cells and preparation of extracts—Virally-infected Fao cells were grown as described above. Nave Rat hepatoma (Fao) cells or CHO cells were grown in RPMI medium supplemented with 10% fetal calf serum as described (22). At 70-80% confluence, cells were deprived of serum for 16 h prior to each experiment, and were then incubated with inducers of insulin resistance and/or insulin. […]

[3] = system: IRS-1; experiment: Effect of proteosome inhibitor on IRS-1 protein content and Tyr phosphorylation; assay type: cell-based; details: not shown
[4] = molecular target: insulin receptor (IR) of Fao rat hepatoma cells (rat (Fao rat hepatoma cells)) (UniProt P15127); experiment: cell-based or functional assay
[5] = system: CHO-T cells; experiment: Insulin-induced Tyr phosphorylation of IRS-1 in stably transfected CHO-T cells; assay type: cell-based, Chinese Hamster
Procedure: FIGS. 1a-c show Tyrosine (Tyr) phosphorylation of IRS-1^7A and its interactions with IR. FIG. 1a—monolayers of CHO-T cells stably overexpressing either WT-IRS-1 (CHO-T^WT) or IRS-1^7A (CHO-T^7A) at 80% confluence (grown in 6 cm plates) were deprived of serum for 16 h prior to the experiment. The cells were then incubated with insulin for the indicated times at 37° C. Cells extracts (100 μg) were resolved on 7.5 SDS-PAGE and immunoblotted with the indicated antibodies. The results are of a representative of six experiments. FIG. 1b—IRS-1 was isolated from CHO-T^WT or CHO-T^7A cells. In vitro phosphorylation of IRS-1^WT and IRS-1^7A by Insulin receptor (IR) was effected as described under “Materials and Experimental Procedures” section of the Examples section which follows. The reaction mixture was subjected to immunoprecipitation with anti-IRS-1 antibodies. Immunocomplexes were resolved on 7.5 SDS-PAGE and immunoblotted with anti-phosphotyrosine (pY) or anti IRS-1 antibodies. FIG. 1c—CHO-T^WT (expressing wild type IRS-1) and CHO-T^7A (expressing the 7A IRS-1 mutant) cells were deprived of serum for 16 h prior to the experiment. The cells were stimulated with 100 nM insulin for the indicated times at 37° C. Cell extracts were prepared and samples (1 mg) were bound to immobilized IR. […]

[6] = system: insulin receptor; details: Fao cells, 10^−7M insulin, prolonged; cited from earlier work
[7] = molecular target: T1, Myc-PH/PTB-L (Mus musculus, UniProt P35569); experiment: In vitro dephosphorylation of Myc-PH/PTB-L with calf intestine alkaline phosphatase; assay type: biochemical; details: 3 units CIP, 37° C., 1 h
T1 construct: Myc-tagged truncated IRS-1 (aa 1-430, PH/PTB-L); expressed in transfected cells; host or cells: CHO-T cells, transient transfection with pcDNA3-Myc-PH/PTB (1-1290 nt)
T1 sequence (P35569 1-430): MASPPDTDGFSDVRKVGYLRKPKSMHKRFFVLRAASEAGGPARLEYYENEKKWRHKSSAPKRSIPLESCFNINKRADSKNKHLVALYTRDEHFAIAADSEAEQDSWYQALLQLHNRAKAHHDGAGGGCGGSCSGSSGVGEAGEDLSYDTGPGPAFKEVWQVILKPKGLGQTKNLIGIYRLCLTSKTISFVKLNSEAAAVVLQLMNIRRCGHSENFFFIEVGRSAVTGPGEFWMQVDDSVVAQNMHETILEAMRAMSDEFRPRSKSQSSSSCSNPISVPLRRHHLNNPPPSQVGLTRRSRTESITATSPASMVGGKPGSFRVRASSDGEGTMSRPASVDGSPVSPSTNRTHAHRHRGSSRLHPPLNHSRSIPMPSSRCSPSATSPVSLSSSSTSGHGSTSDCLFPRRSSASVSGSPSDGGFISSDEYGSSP
Procedure: as §1

insulin receptor (IR) of Fao rat hepatoma cells (rat (Fao rat hepatoma cells)), sequence (P15127 27-1383 limits assumed): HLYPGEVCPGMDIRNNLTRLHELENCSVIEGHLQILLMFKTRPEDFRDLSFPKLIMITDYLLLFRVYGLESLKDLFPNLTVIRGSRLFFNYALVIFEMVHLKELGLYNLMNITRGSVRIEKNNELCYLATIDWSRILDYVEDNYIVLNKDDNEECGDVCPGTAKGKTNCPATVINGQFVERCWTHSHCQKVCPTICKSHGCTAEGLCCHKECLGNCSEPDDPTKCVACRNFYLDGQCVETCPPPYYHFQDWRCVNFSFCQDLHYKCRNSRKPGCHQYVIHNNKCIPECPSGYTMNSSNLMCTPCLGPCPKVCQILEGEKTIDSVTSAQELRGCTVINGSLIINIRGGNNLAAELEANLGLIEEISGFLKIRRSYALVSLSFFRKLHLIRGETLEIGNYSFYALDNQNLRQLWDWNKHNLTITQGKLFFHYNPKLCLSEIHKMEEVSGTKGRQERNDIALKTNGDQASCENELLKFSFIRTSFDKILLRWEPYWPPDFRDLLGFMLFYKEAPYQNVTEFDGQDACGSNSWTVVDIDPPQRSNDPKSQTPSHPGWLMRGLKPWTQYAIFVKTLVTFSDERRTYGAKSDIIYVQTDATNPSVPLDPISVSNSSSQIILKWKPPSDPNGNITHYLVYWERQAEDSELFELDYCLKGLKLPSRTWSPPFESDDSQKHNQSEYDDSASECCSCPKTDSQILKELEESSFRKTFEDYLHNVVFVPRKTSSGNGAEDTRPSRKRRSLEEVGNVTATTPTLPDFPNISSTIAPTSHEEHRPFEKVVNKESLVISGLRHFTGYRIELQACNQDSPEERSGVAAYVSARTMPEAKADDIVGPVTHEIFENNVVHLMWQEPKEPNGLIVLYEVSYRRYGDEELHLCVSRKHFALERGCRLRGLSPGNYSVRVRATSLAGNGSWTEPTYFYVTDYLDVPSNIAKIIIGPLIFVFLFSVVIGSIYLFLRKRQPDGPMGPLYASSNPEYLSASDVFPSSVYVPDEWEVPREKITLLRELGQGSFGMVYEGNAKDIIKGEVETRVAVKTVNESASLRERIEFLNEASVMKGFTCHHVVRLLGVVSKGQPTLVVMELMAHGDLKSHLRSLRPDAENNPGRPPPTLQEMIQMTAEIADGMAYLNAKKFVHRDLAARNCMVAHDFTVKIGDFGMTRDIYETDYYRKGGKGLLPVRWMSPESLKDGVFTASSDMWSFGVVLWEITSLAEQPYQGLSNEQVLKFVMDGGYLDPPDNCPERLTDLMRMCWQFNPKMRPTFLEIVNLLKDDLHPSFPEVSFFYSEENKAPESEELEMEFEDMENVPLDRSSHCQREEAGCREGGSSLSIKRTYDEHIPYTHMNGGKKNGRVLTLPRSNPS

For COC[C@@H]([C@H](O)[C@H](O)C(=O)NCC[C@H](C)c1nc(/C=C/C[C@@H]2O[C@]3(C[C@@H](O)[C@@H]2C)O[C@H]([C@H](C[C@H](O)[C@H](C)[C@H](O)[C@H](C)/C=C(C)/C(C)=C/C=C/C(C)=C\C#N)OC)[C@H](OP(=O)(O)O)C3(C)C)co1)N(C)C [Calyculin A], the “Ser phosphorylation (mobility shift) of Myc-PH/PTB-L^WT” value [1] was “triggers Ser phosphorylation”, the “mobility shift when Ser408 was mutated to Ala” value [1] was “significantly reduced” and the “in vivo phosphorylation of S408” value ([2]; Fao cells infected with IRS-1^WT) was “induced phosphorylation of S408”.

In the case of CC(C)C[C@@H](C=O)NC(=O)[C@H](CC(C)C)NC(=O)[C@H](CC(C)C)NC(=O)OCc1ccccc1 [MG-132] (Cbz-Leu-Leu-Leu-aldehyde), the “effect on protein content and Tyr phosphorylation patterns of IRS-1^7A and IRS-1^WT” value [3] is reported as “did not alter significantly”.

In the case of “Myc-IRS-1^WT (Myc-tagged wild-type mouse IRS-1 expressed in Fao cells from an adenoviral construct) (from UniProt P35569 4-1233)”, the reduction of Tyr phosphorylation content following prolonged (60 min) insulin treatment [4] is reported as 55%.

For insulin: human insulin used as stimulus, the “insulin treatment time at which maximal Tyr phosphorylation of IRS-1 was detected” value [5] is listed as 2 min, the “incubation time required for maximal phosphorylation of Ser408” value ([2]; 100 nM insulin) is listed as 30 to 60 min and the “reduction in ability of IRS-1 to interact with the insulin receptor” value [6] is listed as > 40%.

B1: CIP: calf intestine alkaline phosphatase (protein, UniProt P19111 20-506, looked up)
Intestinal-type alkaline …: LVPVEEEDPAFWNRQAAQALDVAKKLQPIQTAAKNVILFLGDGMGVPTVTATRILKGQMNGKLGPETPLAMDQFPYVALSKTYNVDRQVPDSAGTATAYLCGVKGNYRTIGVSAAARYNQCKTTRGNEVTSVMNRAKKAGKSVGVVTTTRVQHASPAGAYAHTVNRNWYSDADLPADAQMNGCQDIAAQLVNNMDIDVILGGGRKYMFPVGTPDPEYPDDASVNGVRKRKQNLVQAWQAKHQGAQYVWNRTALLQAADDSSVTHLMGLFEPADMKYNVQQDHTKDPTLQEMTEVALRVVSRNPRGFYLFVEGGRIDHGHHDDKAYMALTEAGMFDNAIAKANELTSELDTLILVTADHSHVFSFGGYTLRGTSIFGLAPSKALDSKSYTSILYGNGPGYALGGGSRPDVNDSTSEDPSYQQQAAVPQASETHGGEDVAVFARGPQAHLVHGVEEETFVAHIMAFAGCVEPYTDCNLPAPTTATSIPD
With B1 the “effect on mobility shift of PH/PTB-L from insulin-treated cells” value [7] was “abolished the mobility shift”.
